{"source": "patent US12410152B2", "about": "“Oxazole and thioazole-type cullin ring ubiquitin ligase compounds and uses thereof” (Proxygen GmbH, priority 2019, dated 2025)", "tested_on": "KBM7 WT cells (global proteome)", "assay": "Quantitative expression proteomics (TMT isobaric tagging), drug vs DMSO", "assay_type": "cell-based, human", "from_the_text": "The mechanism by which the assayed molecules re-program a functional CRL4B complex based on the data shown could be that drug binding to CUL4B recruits a neo-substrate directly to the cullin backbone. Alternatively, drug binding could stabilize CUL4B function to boost time intervals where a functionally competent CUL4B complexes can be formed. Here, the word “functional” implies that the CUL4B backbone of this complex needs to be neddylated, and a CUL4B associated E2 ubiquitin-conjugating enzyme (UBE2G1) needs to be bound. FIG. 9 outlines one possible mechanism. Both predicted mechanisms of action would result in a functionally altered CRL4B complex, and thus an altered stability of drug-induced (neo-) substrates. In order to identify target proteins with a decreased abundance or, in other words, target proteins that become degraded by CRL4B after drug treatment, global proteome composition was measured using quantitative expression proteomics (TMT-labeling). In brief, KBM7 cells were drug treated for 12 hours, lysed, and subjected to isobaric tagging. Ensuing proteomics analysis quantified a total of 7,903 proteins at a minimum spectral count of 2. […] Data on essentiality are taken from Hart et al., G3, August 2017 (PMID: 28655737).\n50×10^6 KBM7^WT cells per condition were collected, washed four times with ice-cold PBS, the supernatant aspirated and pellets snap-frozen in liquid N2. Each washed cell pellet was lysed separately in 40 μL of freshly prepared lysis buffer as previously described (see Mayor-Ruiz et al., Mol Cell 2019)\nOffline Fractionation via RP-HPLC at high pH and 2D-RP/RP Liquid Chromatography Mass Spectrometry were performed as previously described (see Mayor-Ruiz et al., Mol Cell 2019).\nAcquired raw data files were processed using the Proteome Discoverer 2.2.0 platform, utilizing the Sequest HT database search engine and Percolator validation software node (V3.04) to remove false positives with a false discovery rate (FDR) of 1% on peptide and protein level under strict conditions. Searches were performed with full tryptic digestion against the human SwissProt database v2017.06 with up to two allowed miscleavage sites. Oxidation (+15.9949 Da) of methionine was set as variable modification, whilst carbamidomethylation (+57.0214 Da) of cysteine residues and TMT 6-plex labelling of peptide N-termini and lysine residues were set as fixed modifications. Data was searched with mass tolerances of ±10 ppm and ±0.02 Da on the precursor and fragment ions, respectively. Results were filtered to include peptide spectrum matches (PSMs) with Sequest HT cross-correlation factor (Xcorr) scores of […] and high peptide confidence assigned by Percolator. MS^2 signal-to-noise values (S/N) values of TMT reporter ions were used to estimate peptide/protein abundance changes. PSMs with precursor isolation interference values of ≥ 50% and average TMT-reporter ion S/N≤10 were excluded from quantitation. Only unique peptides were used for TMT quantitation as well as for TOP3 label-free quantitation. Isotopic impurity correction and TMT channel-normalization based on total peptide amount were applied. For statistical analysis and p-value calculation, the integrated ANOVA hypothesis test was used. TMT ratios with p-values below 0.01 were considered as significant. Only proteins with >1 peptide detected and >1 unique peptide detected were considered for further analysis. For the calling of destabilized proteins, a log 2 fold change threshold (drug/DMSO) of −0.3 was applied.\nComparison of overall proteome-wide changes in KBM7 cells treated with IC020772.1 (2.5 μM), IC021313.2 (7 μM) or T6938051 (3.5 μM) for 5 h and 12h, using quantitative proteomics based on isobaric tagging.\nThe protein names in Table 4, Table 5 and Table 6 refer to the protein names as provided by HUGO Gene Nomenclature Committee (HGNC) database. […]", "data": [{"smiles": "O=C(CSc1nc2ccccc2[nH]1)Nc1ccc(Cl)cn1", "note": "[IC021313.2]", "values": [{"measurement": "number of proteins significantly downregulated (log2FC < -0.3), destabilized proteins", "setting": "KBM7 cells, 12 hours, ~10xEC50, 7,903 proteins quantified", "result": 839}, {"measurement": "number of downregulated proteins known to be implicated in KBM7 proliferation (essential for KBM7 viability)", "setting": "KBM7 cells, 12 hours, essentiality from Hart et al. 2017", "result": 183}, {"measurement": "logFC (IC021313.2/DMSO)", "setting": "protein AKAP11 (Q9UKA4), essential: false", "result": "−0.3004"}, {"measurement": "logFC (IC021313.2/DMSO)", "setting": "protein ALKBH3 (Q96Q83-1), essential: false", "result": "−0.3129"}, {"measurement": "logFC (IC021313.2/DMSO)", "setting": "protein ALKBH4 (Q9NXW9-1), essential: false", "result": "−0.3111"}, {"measurement": "logFC (IC021313.2/DMSO)", "setting": "protein ATXN7L3B (Q96GX2), essential: false", "result": "−0.3111"}, {"measurement": "logFC (IC021313.2/DMSO)", "setting": "protein BMT2 (Q1RMZ1), essential: false", "result": "−0.3111"}, {"measurement": "logFC (IC021313.2/DMSO)", "setting": "protein C10orf88 (Q9H8K7), essential: false", "result": "−0.3004"}, {"measurement": "logFC (IC021313.2/DMSO)", "setting": "protein CCNC (P24863-1), essential: false", "result": "−0.3129"}, {"measurement": "logFC (IC021313.2/DMSO)", "setting": "protein CHMP4B (Q9H444), essential: true", "result": "−0.3129"}, {"measurement": "logFC (IC021313.2/DMSO)", "setting": "protein CIT (O14578-4), essential: false", "result": "−0.3147"}, {"measurement": "logFC (IC021313.2/DMSO)", "setting": "protein CREB1 (P16220-1), essential: false", "result": "−0.3147"}, {"measurement": "logFC (IC021313.2/DMSO)", "setting": "protein CUEDC2 (Q9H467), essential: false", "result": "−0.3129"}, {"measurement": "logFC (IC021313.2/DMSO)", "setting": "protein DCUN1D4 (Q92564-3), essential: false", "result": "−0.3004"}, {"measurement": "logFC (IC021313.2/DMSO)", "setting": "protein DGCR14 (Q96DF8), essential: true", "result": "−0.3129"}, {"measurement": "logFC (IC021313.2/DMSO)", "setting": "protein DSG2 (Q14126), essential: false", "result": "−0.3111"}, {"measurement": "logFC (IC021313.2/DMSO)", "setting": "protein EIF4B (P23588-1), essential: false", "result": "−0.3129"}, {"measurement": "logFC (IC021313.2/DMSO)", "setting": "protein ENTPD6 (O75354-1), essential: false", "result": "−0.3004"}, {"measurement": "logFC (IC021313.2/DMSO)", "setting": "protein EPN1 (Q9Y6I3-2), essential: false", "result": "−0.3022"}, {"measurement": "logFC (IC021313.2/DMSO)", "setting": "protein FADS1 (O60427-1), essential: false", "result": "−0.3147"}, {"measurement": "logFC (IC021313.2/DMSO)", "setting": "protein FAM122A (Q96E09), essential: true", "result": "−0.3022"}, {"measurement": "logFC (IC021313.2/DMSO)", "setting": "protein GTF2H1 (P32780-1), essential: true", "result": "−0.3022"}, {"measurement": "logFC (IC021313.2/DMSO)", "setting": "protein GUCY1A3 (Q02108-1), essential: false", "result": "−0.3129"}, {"measurement": "logFC (IC021313.2/DMSO)", "setting": "protein KIF15 (Q9NS87-1), essential: false", "result": "−0.3022"}, {"measurement": "logFC (IC021313.2/DMSO)", "setting": "protein NCAPD2 (Q15021), essential: true", "result": "−0.3094"}, {"measurement": "logFC (IC021313.2/DMSO)", "setting": "protein NDRG3 (Q9UGV2-1), essential: false", "result": "−0.3111"}, {"measurement": "logFC (IC021313.2/DMSO)", "setting": "protein NUFIP1 (Q9UHK0), essential: true", "result": "−0.3129"}, {"measurement": "logFC (IC021313.2/DMSO)", "setting": "protein PFDN5 (Q99471-1), essential: false", "result": "−0.3111"}, {"measurement": "logFC (IC021313.2/DMSO)", "setting": "protein PHF8 (Q9UPP1-1), essential: false", "result": "−0.3022"}, {"measurement": "logFC (IC021313.2/DMSO)", "setting": "protein PLSCR1 (O15162-1), essential: false", "result": "−0.3111"}, {"measurement": "logFC (IC021313.2/DMSO)", "setting": "protein PO1A (Q8NBT0-1), essential: false", "result": "−0.3022"}, {"measurement": "logFC (IC021313.2/DMSO)", "setting": "protein PPIL4 (Q8WUA2), essential: false", "result": "−0.3004"}, {"measurement": "logFC (IC021313.2/DMSO)", "setting": "protein PSD4 (Q8NDX1-1), essential: false", "result": "−0.3022"}, {"measurement": "logFC (IC021313.2/DMSO)", "setting": "protein PUS3 (Q9BZE2), essential: false", "result": "−0.3022"}, {"measurement": "logFC (IC021313.2/DMSO)", "setting": "protein PVR (P15151-1), essential: false", "result": "−0.3004"}, {"measurement": "logFC (IC021313.2/DMSO)", "setting": "protein PYM1 (Q9BRP8-1), essential: false", "result": "−0.3022"}, {"measurement": "logFC (IC021313.2/DMSO)", "setting": "protein RAD54L (Q92698), essential: false", "result": "−0.3004"}, {"measurement": "logFC (IC021313.2/DMSO)", "setting": "protein RASSF5 (Q8WWW0-2), essential: false", "result": "−0.3022"}, {"measurement": "logFC (IC021313.2/DMSO)", "setting": "protein RPS17 (P08708), essential: true", "result": "−0.3094"}, {"measurement": "logFC (IC021313.2/DMSO)", "setting": "protein SKP2 (Q13309-1), essential: false", "result": "−0.3111"}, {"measurement": "logFC (IC021313.2/DMSO)", "setting": "protein SLC10A4 (Q96EP9), essential: false", "result": "−0.3111"}, {"measurement": "logFC (IC021313.2/DMSO)", "setting": "protein SLCO4A1 (Q96BD0-1), essential: false", "result": "−0.3004"}, {"measurement": "logFC (IC021313.2/DMSO)", "setting": "protein SUV39H1 (O43463-2), essential: false", "result": "−0.3004"}, {"measurement": "logFC (IC021313.2/DMSO)", "setting": "protein TANC2 (Q9HCD6-2), essential: false", "result": "−0.3129"}, {"measurement": "logFC (IC021313.2/DMSO)", "setting": "protein TFAP4 (Q01664), essential: true", "result": "−0.3094"}, {"measurement": "logFC (IC021313.2/DMSO)", "setting": "protein USP12 (O75317), essential: false", "result": "−0.3004"}, {"measurement": "logFC (IC021313.2/DMSO)", "setting": "protein WDR76 (Q9H967), essential: false", "result": "−0.3004"}, {"measurement": "logFC (IC021313.2/DMSO)", "setting": "protein ZNF770 (Q6IQ21), essential: false", "result": "−0.3004"}, {"measurement": "logFC (IC021313.2/DMSO)", "setting": "protein ZWILCH (Q9H900-1), essential: false", "result": "−0.3022"}]}]}
